“And” between values parts separate entries of the source, which are not always exact repeats. Equal entries are not always repeated.
Tests used:
[1] = biological target: T1, mGluR2 (Mus musculus, UniProt Q14BI2); test: Live-cell FRET, SNAP-m2 (VFT domain) inter-subunit sensor in HEK293T cells; conditions: for SNAP-m2 FRET response (PAM DRC): individual cells, normalized to 1mM glutamate;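 as to all read-outs here: apparent FRET efficiency from whole-membrane ROIs of single cells, corrected for donor bleed-through and background, ΔFRET as treatment minus pretreatment signal, recorded at room temperature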
[2] = biological target: mGluR2 (Mus musculus, UniProt Q14BI2, INS715F); test: Live-cell FRET, azi-ECL2 (7TM domain, extracellular loop 2) sensor in HEK293T cells; conditions: for Mean normalized azi-ECL2 FRET response: glutamate + 10μM modulator, maximal response normalized to 1mM glutamate;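 as to all read-outs here: Cy3/Cy5 click-labeled sensor, whole-membrane ROIs per cell, apparent FRET after bleed-through correction, ΔFRET as treatment minus pre-treatment signal, at room temperature, at least three biological replicates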
[3] = biological target: mGluR2 (Mus musculus, UniProt Q14BI2, A548F); test: Live-cell FRET, azi-CRD (cysteine-rich domain) sensor in HEK293T cells; conditions: for Mean normalized FRET response, azi-CRD PAM DRC: glutamate + 10μM BINA, maximal response normalized to 1mM glutamate
[4] = biological target: T1, mGluR2; test: Functional calcium imaging, SNAP-mGluR2 (no FLAG-tag) with chimeric G protein Gqo5 in HEK293T cells; format: cell-based; design: Full length mGluR2 construct with an amber codon (TAG) mutation of amino acid A548 (azi-CRD) or N-terminal SNAP-tag (SNAP-mGluR2); host or cells: HEK293T; conditions: for Intracellular Ca2+ Response (normalized to 1mM glutamate), Mean: Glutamate + 1μM BINA
[5] = 10μM BINA, ([1 mM glutamate + modulator] - [1 mM glutamate]) × 100
[6] = Glutamate + 10μM BINA, log[Glutamate] (M) -5.82391
[7] = Glutamate + 10μM BINA, log[Glutamate] (M) -6.52288
[8] = Glutamate + 10μM BINA, log[Glutamate] (M) -7
[9] = Glutamate + 10μM BINA, log[Glutamate] (M) -7.30103
[10] = Glutamate + 10μM BINA, log[Glutamate] (M) -7.69897

T1 sequence (Q14BI2 19-872): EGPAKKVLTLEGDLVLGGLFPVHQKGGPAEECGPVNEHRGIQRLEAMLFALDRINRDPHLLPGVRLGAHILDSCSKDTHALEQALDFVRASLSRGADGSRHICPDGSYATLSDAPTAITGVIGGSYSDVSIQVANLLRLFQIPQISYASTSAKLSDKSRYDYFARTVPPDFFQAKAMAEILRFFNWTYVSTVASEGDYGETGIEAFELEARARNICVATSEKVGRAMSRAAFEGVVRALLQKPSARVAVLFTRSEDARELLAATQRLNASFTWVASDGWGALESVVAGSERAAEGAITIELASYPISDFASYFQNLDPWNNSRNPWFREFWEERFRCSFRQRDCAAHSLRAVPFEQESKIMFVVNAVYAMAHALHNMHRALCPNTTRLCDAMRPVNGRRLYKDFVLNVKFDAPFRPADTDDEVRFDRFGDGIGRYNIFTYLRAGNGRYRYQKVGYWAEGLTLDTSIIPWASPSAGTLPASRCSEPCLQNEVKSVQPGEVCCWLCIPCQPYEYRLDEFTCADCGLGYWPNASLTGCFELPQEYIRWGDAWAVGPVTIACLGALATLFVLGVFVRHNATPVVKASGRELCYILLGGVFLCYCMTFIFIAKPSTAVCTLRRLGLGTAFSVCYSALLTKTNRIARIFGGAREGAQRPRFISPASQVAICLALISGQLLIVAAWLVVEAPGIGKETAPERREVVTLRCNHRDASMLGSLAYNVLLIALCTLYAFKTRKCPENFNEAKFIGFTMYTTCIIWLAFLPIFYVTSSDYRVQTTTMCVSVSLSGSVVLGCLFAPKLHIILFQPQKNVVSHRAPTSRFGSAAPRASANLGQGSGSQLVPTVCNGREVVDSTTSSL
Sequence of mGluR2 (Mus musculus, UniProt Q14BI2, INS715F) (Q14BI2 with tags, fused parts or gaps INS715F): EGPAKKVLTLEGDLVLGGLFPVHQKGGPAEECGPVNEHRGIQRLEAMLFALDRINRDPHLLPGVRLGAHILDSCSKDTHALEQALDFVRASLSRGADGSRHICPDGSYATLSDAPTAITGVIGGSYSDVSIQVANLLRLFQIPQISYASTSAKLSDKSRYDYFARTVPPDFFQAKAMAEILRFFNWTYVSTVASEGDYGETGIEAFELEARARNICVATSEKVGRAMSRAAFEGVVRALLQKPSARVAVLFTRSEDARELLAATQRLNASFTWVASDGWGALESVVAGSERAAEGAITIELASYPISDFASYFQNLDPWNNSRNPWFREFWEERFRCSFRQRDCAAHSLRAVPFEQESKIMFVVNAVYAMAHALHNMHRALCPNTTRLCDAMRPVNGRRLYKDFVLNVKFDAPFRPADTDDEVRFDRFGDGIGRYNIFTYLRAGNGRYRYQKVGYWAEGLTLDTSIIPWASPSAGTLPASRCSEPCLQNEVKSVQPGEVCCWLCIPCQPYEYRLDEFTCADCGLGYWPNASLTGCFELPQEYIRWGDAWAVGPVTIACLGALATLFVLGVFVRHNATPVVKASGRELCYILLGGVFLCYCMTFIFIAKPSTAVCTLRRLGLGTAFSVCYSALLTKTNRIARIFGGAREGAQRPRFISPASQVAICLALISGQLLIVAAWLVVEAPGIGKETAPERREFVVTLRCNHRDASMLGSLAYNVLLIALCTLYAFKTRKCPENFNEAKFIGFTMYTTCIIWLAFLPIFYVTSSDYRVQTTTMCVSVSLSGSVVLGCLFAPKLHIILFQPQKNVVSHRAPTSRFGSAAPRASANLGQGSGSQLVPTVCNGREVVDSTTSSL
Sequence of mGluR2 (Mus musculus, UniProt Q14BI2, A548F) (Q14BI2 19-872 A548F): as the sequence (Q14BI2 19-872) above, with A530F counted along it

Cc1c(OCc2cccc(-c3ccc(C(=O)O)cc3)c2)cc2c(c1C)C(=O)C(C1CCCC1)C2 (stereo not drawn) [BINA]
SNAP-m2 - ΔEfficacy, Mean ΔEfficacy [1, 5]: 2.381
SNAP-m2 - ΔEfficacy, individual cell responses ([1]; 10μM BINA, single cells): 2.679 and 0.7326 and 0.3738 and 4.211 and 3.017 and 2.268 and 3.39
SNAP-m2 FRET response (PAM DRC), Mean ([1]; Glutamate + 10μM BINA, log[Glutamate] (M) -3): -1.024
SNAP-m2 FRET response (PAM DRC), Mean ([1]; Glutamate + 10μM BINA, log[Glutamate] (M) -4.1549): -1.044
SNAP-m2 FRET response (PAM DRC), Mean ([1]; Glutamate + 10μM BINA, log[Glutamate] (M) -4.52288): -1.065
SNAP-m2 FRET response (PAM DRC), Mean ([1]; Glutamate + 10μM BINA, log[Glutamate] (M) -5): -1.035
SNAP-m2 FRET response (PAM DRC), Mean ([1]; Glutamate + 10μM BINA, log[Glutamate] (M) -5.39794): -0.9191
SNAP-m2 FRET response (PAM DRC) [1, 6]: -0.3851 and -0.8695 and -0.7127 and -0.7584 and -0.7474 and -0.9245 and -0.822 and -0.6977 and -0.989 and -0.9518 and -0.9499 and -0.2243 and -0.901 and -0.9622 and -1.01 and -0.9642 and -0.1942 and -0.3249 and -0.4164 and -0.506
SNAP-m2 FRET response (PAM DRC), Mean [1, 6]: -0.7275
SNAP-m2 FRET response (PAM DRC) [1, 7]: -0.06795 and -0.4149 and -0.3185 and -0.3338 and -0.3365 and -0.4306 and -0.3984 and -0.3309 and -0.4302 and -0.4616 and -0.4969 and -0.03041 and -0.4566 and -0.4789 and -0.4597 and -0.5155 and -0.05296 and -0.06597 and -0.09807 and -0.1208 and -0.3936 and -0.2233 and -0.4059
SNAP-m2 FRET response (PAM DRC), Mean [1, 7]: -0.3184
SNAP-m2 FRET response (PAM DRC) [1, 8]: -0.0453 and -0.1707 and -0.1814 and -0.1137 and 0 (10×) and -0.1874 and -0.2505 and -0.1579 and -0.1949 and -0.1703
SNAP-m2 FRET response (PAM DRC), Mean [1, 8]: -0.07748
SNAP-m2 FRET response (PAM DRC) [1, 9]: 0 (16×) and -0.1321 and -0.1145 and -0.02457
SNAP-m2 FRET response (PAM DRC), Mean [1, 9]: -0.01427
SNAP-m2 FRET response (PAM DRC) [1, 10]: 0
SNAP-m2 FRET response (PAM DRC), Mean [1, 10]: 0
Mean max response (normalized max ΔFRET) ([1]; SNAP-m2, 1 mM glutamate + 10 μM modulator, normalized to 1 mM glutamate): 1.02
Mean ΔPotency ([1]; SNAP-m2, 10μM modulator, (([modulator + glutamate]EC50 – [glutamate] EC50)/[glutamate] EC50) × 100): -89.602
Mean ΔEfficacy ([1]; SNAP-m2, 10μM modulator, ([1 mM glutamate + modulator] - [1 mM glutamate]) × 100): 2.381
Hill slope of glutamate titration ([1]; SNAP-m2 sensor, + 10 μM modulator): –1.24
Live-cell FRET max response normalized to 1mM glutamate ([1]; SNAP-m2 sensor, Glutamate + 10μM BINA, individual values (N=7)): 1.03 and 1.023 and 1.0339 and 1.027 and 1.007 and 1.004 and 1.042
azi-ECL2 - ΔEfficacy, Mean ΔEfficacy [2, 5]: 42.1338
Mean ΔPotency ([2]; 10μM modulator, (([modulator + glutamate]EC50 – [glutamate] EC50)/[glutamate] EC50) × 100): -51.0252
ΔPotency, individual cell responses ([2]; 10μM modulator, single cells, (([modulator + glutamate]EC50 – [glutamate] EC50)/[glutamate] EC50) × 100): -59.4349 and -64.4751 and -43.9117 and -59.7874 and -53.4508 and -10.4259 and -42.6395 and -39.4154 and -48.6344 and -48.1424 and -33.877 and -32.3399 and -71.1589 and -70.5942 and -70.1728 and -67.9438
ΔEfficacy, individual cell responses ([2]; 10μM modulator, single cells, ([1 mM glutamate + modulator] - [1 mM glutamate]) × 100): 29.3333 and 34.3873 and 67.0103 and 45.1311 and 54.8496 and 47.8253 and 100.958 and 52.7779 and 75.0355 and 26.9064 and 8.621 and 25.7313 and 7.026 and 14.2809
Mean max response (normalized max ΔFRET) ([2]; azi-ECL2, 1 mM glutamate + 10 μM modulator, normalized to 1 mM glutamate): 1.42
Hill slope of glutamate titration ([2]; azi-ECL2 sensor, + 10 μM modulator): 1.06
Mean normalized azi-ECL2 FRET response ([2]; log[Glutamate] (M) -3): 1.421
Mean normalized azi-ECL2 FRET response ([2]; log[Glutamate] (M) -4.1549): 1.469
Mean normalized azi-ECL2 FRET response ([2]; log[Glutamate] (M) -4.52288): 1.344
Mean normalized azi-ECL2 FRET response ([2]; log[Glutamate] (M) -5): 1.155
Mean normalized azi-ECL2 FRET response ([2]; log[Glutamate] (M) -5.39794): 0.8858
Mean normalized azi-ECL2 FRET response ([2]; log[Glutamate] (M) -5.82391): 0.584
Mean normalized azi-ECL2 FRET response ([2]; log[Glutamate] (M) -6.52288): 0.1491
Mean normalized azi-ECL2 FRET response ([2]; log[Glutamate] (M) -7): 0.03109
Mean normalized azi-ECL2 FRET response ([2]; log[Glutamate] (M) -7.30103): 0.00416
Mean normalized azi-ECL2 FRET response ([2]; log[Glutamate] (M) -7.69897): 0
azi-CRD - ΔEfficacy, Mean ΔEfficacy [3, 5]: 12.0943
azi-CRD - ΔEfficacy, individual cell responses ([3]; 10μM BINA, single cells): 23.3716 and 17.6357 and 26.8405 and 19.7115 and 27.7937 and 0.5839 and -1.206 and 0.442 and -6.324
Hill slope of glutamate titration ([3]; azi-CRD sensor, + 10 μM modulator): 1.16
Live-cell FRET max response normalized to 1mM glutamate ([3]; azi-CRD sensor, Glutamate + 10μM BINA, individual values (N=9)): 1.278 and 1.006 and 0.9879 and 1.004 and 0.9368 and 1.234 and 1.176 and 1.2684 and 1.197
Mean max response (normalized max ΔFRET) ([3]; azi-CRD, 1 mM glutamate + 10 μM modulator, normalized to 1 mM glutamate): 1.12
Mean ΔPotency ([3]; azi-CRD, 10μM modulator, (([modulator + glutamate]EC50 – [glutamate] EC50)/[glutamate] EC50) × 100): -86.2846
ΔPotency, individual cell ([3]; azi-CRD, 10μM modulator, calculated from individual cell responses): -93.2892 and -92.5628 and -93.8686 and -95.6587 and -92.9779 and -84.725 and -80.1033 and -74.2586 and -75.6122 and -79.7897
Mean normalized FRET response, azi-CRD PAM DRC ([3]; log[Glutamate] (M) -3): 1.121
Mean normalized FRET response, azi-CRD PAM DRC ([3]; log[Glutamate] (M) -4.1549): 1.112
Mean normalized FRET response, azi-CRD PAM DRC ([3]; log[Glutamate] (M) -4.52288): 1.067
Mean normalized FRET response, azi-CRD PAM DRC ([3]; log[Glutamate] (M) -5): 1.001
Mean normalized FRET response, azi-CRD PAM DRC ([3]; log[Glutamate] (M) -5.39794): 0.8946
Mean normalized FRET response, azi-CRD PAM DRC ([3]; log[Glutamate] (M) -5.82391): 0.6333
Mean normalized FRET response, azi-CRD PAM DRC ([3]; log[Glutamate] (M) -6.52288): 0.1759
Mean normalized FRET response, azi-CRD PAM DRC ([3]; log[Glutamate] (M) -7): 0.038
Mean normalized FRET response, azi-CRD PAM DRC ([3]; log[Glutamate] (M) -7.30103): 0
Mean normalized FRET response, azi-CRD PAM DRC ([3]; log[Glutamate] (M) -7.69897): 0
Mean normalized FRET response, azi-CRD PAM DRC ([3]; log[Glutamate] (M) -8): 0
Intracellular Ca2+ Response, % 1mM Glutamate ([4]; 1mM Glutamate + 1uM BINA, individual experiments): 150.888% and 116.9% and 139.124%
Mean ΔEfficacy of glutamate ([4]; Ca2+ response, 1 mM glutamate + 1 μM modulator, ([1 mM glutamate + modulator] - [1 mM glutamate]) × 100): 35.6375
ΔEfficacy of glutamate, individual experiments ([4]; Ca2+ response, 1 mM glutamate + 1 μM modulator, single replicate): 16.9004 and 39.1239 and 50.8883
Mean ΔPotency of glutamate ([4]; Ca2+ response, glutamate + 1 μM modulator, (([modulator + glutamate]EC50 – [glutamate]EC50)/[glutamate]EC50) × 100): -89.8956
ΔPotency of glutamate, individual experiments ([4]; Ca2+ response, glutamate + 1 μM modulator, single replicate): -90.1258 and -89.6956 and -89.8653
Intracellular Ca2+ Response (normalized to 1mM glutamate), Mean ([4]; log[Glutamate] (M) -3): 1.356
Intracellular Ca2+ Response (normalized to 1mM glutamate), Mean ([4]; log[Glutamate] (M) -3.60206): 1.413
Intracellular Ca2+ Response (normalized to 1mM glutamate), Mean ([4]; log[Glutamate] (M) -4.1549): 1.344
Intracellular Ca2+ Response (normalized to 1mM glutamate), Mean ([4]; log[Glutamate] (M) -4.52288): 1.309
Intracellular Ca2+ Response (normalized to 1mM glutamate), Mean ([4]; log[Glutamate] (M) -5): 1.259
Intracellular Ca2+ Response (normalized to 1mM glutamate), Mean ([4]; log[Glutamate] (M) -5.39794): 1.0353
Intracellular Ca2+ Response (normalized to 1mM glutamate), Mean ([4]; log[Glutamate] (M) -5.82391): 0.6392
Intracellular Ca2+ Response (normalized to 1mM glutamate), Mean ([4]; log[Glutamate] (M) -6.52288): 0.1098
Intracellular Ca2+ Response (normalized to 1mM glutamate), Mean ([4]; log[Glutamate] (M) -7): 0
Intracellular Ca2+ Response (normalized to 1mM glutamate), Mean ([4]; log[Glutamate] (M) -7.30103): 0
Intracellular Ca2+ Response (normalized to 1mM glutamate), Mean ([4]; log[Glutamate] (M) -7.69897): 0

— article PMC9299836 (eLife, 2022)
